29 compounds from patent publication US6867210B2, “Aryl substituted pyrimidines” (Euro-Celtique S.A., priority 2000, dated 2005) can be followed below.

Test [1] concerns the target rBIIa/beta 1 sodium channels expressed in Xenopus oocytes (Rattus norvegicus, UniProt P04775). Description: Electrophysiological Assay 2: two-electrode voltage clamp in Xenopus oocytes. It is filed as cell-based. The following applies: apparent Ki for the inactivated state from single point inhibition data, read-out: RBIIA/β1 Ki. Here is the method:
Electrophysiological Assay 2 was used to measure potencies of compounds of the present invention rBIIa/beta 1 sodium channels expressed in Xenopus oocytes.
Preparation of cRNA encoding cloned rat brain type IIa (rBIIa) and beta 1 (β1): cDNA clones encoding the rat brain beta 1 subunit were cloned in house using standard methods, and mRNA were prepared by standard methods. mRNA encoding rBIIa was provided by Dr. A. Golden (UC Irvine). The mRNAs were diluted and stored at −80° C. in 1 μL aliquots until injection.
Preparation of oocytes: Mature female Xenopus laevis were anaesthetized (20-40 min) using 0.15% 3-aminobenzoic acid ethyl ester (MS-222) following established procedures (Woodward, R. M., et al., Mol. Pharmacol. 41:89-103 (1992)).
Two to six ovarian lobes were surgically removed. Oocytes at developmental stages V-VI were dissected from the ovary, oocytes were still surrounded by enveloping ovarian tissues. Oocytes were defolliculated on the day of surgery by treatment with collagenase (0.5 mg/mL Sigma Type I, or Boehringer Mannheim Type A, for 0.5-1 hr). Treated oocytes were vortexed to dislodge epithelia, washed repeatedly and stored in Barth's medium containing 88 mM NaCl, 1 mM KCl, 0.41 mM CaCl2, 0.33 mM Ca(NO3)2, 0.82 mM MgSO4, 2.4 mM NaHCO3, 5 mM HEPES, pH 7.4 adjusted with 0.1 mg/mL gentamycin sulphate.
Micro-injection of oocytes: Defolliculated oocytes were micro-injected using a Nanoject injection system (Drummond Scientific Co., Broomall, Pa.). Injection pipettes were beveled to minimize clogging. Tip diameter of injection pipettes was 15-35 μm. Oocytes were microinjected with approximately 50 nL 1:10 ratio mixtures of cRNAs for rBIIa and beta 1 respectively.
Electrophysiology: Membrane current responses were recorded in frog Ringer solution containing 115 mM NaCl, 2 mM KCl, 1.8 mM CaCl2, 5 mM HEPES, pH 7.4. Electrical recordings were made using a conventional two-electrode voltage clamp (Dagan TEV-200) over periods ranging between 1-7 days following injection. The recording chamber was a simple gravity fed flow-through chamber (volume […] depending on adjustment of aspirator). Oocytes were placed in the recording chamber, impaled with electrodes and continuously perfused (5-15 mL min^−1) with frog Ringer's solution. The tested compounds were applied by bath perfusion.
Voltage protocols for evoking sodium channel currents: The standard holding potential for whole oocyte clamp was −120 mV. Standard current-voltage relationships were elicited by 40 ms depolarizing steps starting from −60 mV to +50 mV in 10 mV increments. Peak currents were measured as the maximum negative current after depolarizing voltage steps. The voltage from maximum current response was noted and used for the next voltage protocol.
The purpose was to find compounds that are state dependent modifiers of neuronal sodium channels. Preferably, the compounds have a low affinity for the rested/closed state of the channel, but a high affinity for the inactivated state. The following voltage protocol was used to measure a compounds affinity for the inactivated state. Oocytes were held at a holding potential of −120 mV. At this membrane voltage, nearly all of the channels would be in the closed state. Then a 4 second depolarization was made to the voltage where the maximum current was elicited. At the end of this depolarization, nearly all the channels would be in the inactivated state. A 10 ms hyperpolarizing step was then made in order to remove some channels from the incativated state. A final depolarizing test pulse was used to assay the sodium current after this prolonged depolarization (see analysis below). Sodium currents were measured at this test pulse before and after the application of the tested compound. Data was acquired using pClamp 8.0 software and analyzed with clampfit software (Axon instruments). […]

In test [2] the test system is maximal electroshock-induced seizures (MES). Description: Maximum electroshock seizure test (MES), anticonvulsant evaluation. It is filed as in vivo. The following applies: Mus musculus, mice. From the text: The compounds of the present invention may be tested for in vivo anticonvulsant activity after i.v., p.o. or i.p. injection using a number of anticonvulsant tests in mice, including the maximum electroshock seizure test (MES). Maximum electroshock seizures were induced in male NSA mice weighing between 15-20 g and male Sprague-Dawley rats weighing between 200-225 g by application of current (50 mA, 60 pulses/sec, 0.8 msec pulse width, 1 sec duration, D.C., mice; 99 mA, 125 pulses/sec, 0.8 msec pulse width, 2 sec duration, D.C., rats) using a Ugo Basile ECT device (Model 7801). Mice were restrained by gripping the loose skin on their dorsal surface and saline-coated corneal electrodes were held lightly against the two corneae. Rats were allowed free movement on the bench top and ear-clip electrodes were used. […] A tonic seizure was defined as a hindlimb extension in excess of 90 degrees from the plane of the body. Results were treated in a quantal manner.
The ability of 4-[4-(4-fluorophenoxy)phenyl]-pyrimidine-2-carboxamide to block maximal electroshock-induced seizures (MES) was determined according to the method above.
4-[4-(4-Fluorophenoxy)phenyl]-pyrimidine-2-carboxamide was administered p.o. to mice 30 minutes before the test procedure.
The following compounds on Table 1 were tested accordingly after a p.o. administration and also after an i.v. injection. The compounds were injected i.v. 15 minutes before the test procedure.

The mark [3] stands for this setting: iv, i.v. injection 15 minutes before the test, read-out: MES i.v. ED50.
The mark [4] stands for this setting: po, p.o., 30 minutes before the test, ED50 = dose protecting 50% of animals, read-out: MES p.o. ED50.

Structures can show the parent of a compound that is named as a salt. Where two headings read alike, the source gives them in different places.

On to “4-[4-(4-fluorophenoxy)phenyl]pyrimidine-2-carbamate”, for which the Ki in test [1] turned out to be 8.7 µM.
Turning to `O=C(c1nccc(-c2ccc(Oc3ccc(F)cc3)cc2)n1)C(Br)Br` [1-[4-[4-(4-fluorophenoxy)phenyl]pyrimidine-2-yl]-2,2-dibromoethanone], the Ki in test [1] worked out at 10.6 µM.
As a reminder, the ED50 is the dose at which the effect has come halfway, by size or by number of responders. With `CN(C)C(=O)c1cc(N(C)C)nc(-c2ccc(Oc3ccccc3)cc2)n1` [2-(4-phenoxyphenyl)-6-(dimethylamino)pyrimidine-4-carboxylic acid dimethylamide], the median effective dose (ED50) in test [2] (setting [3]) was found to be 2.1 mg/kg.
As to `Fc1ccc(Oc2ccc(-c3ccnc(-c4ccno4)n3)cc2)cc1` [2-(5-isoxazolyl)-4-[4-(4-fluorophenoxy)phenyl]pyrimidine], in test [1], the Ki came out at 2.63 µM.
Same read-out and setting: the figure for `Fc1ccc(Oc2ccc(-c3ccnc(-c4nc[nH]n4)n3)cc2)cc1` [2-[3-(1,2,4-triazolyl)]-4-[4-(4-fluorophenoxy)phenyl]pyrimidine] is 5.91 µM.
`CN(C)C=NC(=O)c1ccnc(-c2ccc(Oc3ccc(Cl)cc3F)cc2)n1` [2-[4-(4-chloro-2-fluorophenoxy)phenyl]pyrimidine-4-carboxylic acid dimethylaminomethyleneamide]: the ED50 worked out at 1.5 mg/kg in test [2] (setting [3]) and 4.1 mg/kg in test [2] (setting [4]).
As to `COC(=O)c1ccnc(-c2ccc(Oc3ccc(F)cc3)cc2)n1` [2-[4-(4-fluorophenoxy)phenyl]pyrimidine-4-carboxylic acid methyl ester], in test [1], the Ki came to 71.5 µM.
Regarding `CN(C)c1nccc(-c2ccc(Oc3ccc(F)cc3)cc2)n1` [2-dimethylamino-4-[4-(4-fluorophenoxy)phenyl]pyrimidine], the Ki in test [1] was determined as 27.6 µM.
As to `Cc1nc(-c2ccc(Oc3ccc(F)cc3)cc2)ccc1C(N)=O` [2-methyl-6-[4-(4-fluorophenoxy)phenyl]pyridine-3-carboxamide], the Ki in test [1] worked out at 8.45 µM.
For the compound `COC(=O)c1nccc(-c2ccc(Oc3ccc(F)cc3F)cc2)n1` [4-[4-(2,4-difluorophenoxy)phenyl]pyrimidine-2-carboxylic acid methyl ester], the Ki in test [1] is 139 µM.
Still for that read-out and setting: then `CCOC(=O)c1nccc(-c2ccc(Oc3ccc(F)cc3)cc2)n1` [4-[4-(4-Fluorophenoxy)phenyl]-pyrimidine-2-carboxylic acid ethyl ester], with 9.86 µM.
With `CNC(=O)c1nccc(-c2ccc(Oc3ccc(F)cc3)cc2)n1` [4-[4-(4-Fluorophenoxy)phenyl]-pyrimidine-2-carboxylic acid methylamide], the results for the 50% effective dose (ED50) in test [2] (setting [3]) and in test [2] (setting [4]) were 2.8 mg/kg and 6.1 mg/kg, respectively.
For `NC(=O)c1nccc(-c2ccc(Oc3ccc([N+](=O)[O-])cc3)cc2)n1` [4-[4-(4-Nitrophenoxy)phenyl]-pyrimidine-2-carboxamide], the Ki in test [1] stood at 1.13 µM. Further, the ED50 amounted to 3.1 mg/kg in test [2] (setting [3]) and 10 mg/kg in test [2] (setting [4]).
Turning to `O=C(NCCCl)c1nccc(-c2ccc(Oc3ccc(F)cc3)cc2)n1` [4-[4-(4-fluorophenoxy)phenyl]pyrimidine-2-carboxylic acid 2-chloroethylamide], in test [1], the Ki is 2.62 µM.
In the case of `O=CNC(=O)c1nccc(-c2ccc(Oc3ccc(F)cc3)cc2)n1` [4-[4-(4-fluorophenoxy)phenyl]pyrimidine-2-carboxylic acid hydroxymethyleneamide], the Ki in test [1] came out at 3.53 µM. Moreover, the median effective dose (ED50) in test [2] (setting [3]) came to 1.5 mg/kg; in test [2] (setting [4]), 5 mg/kg.
`CNC=NC(=O)c1nccc(-c2ccc(Oc3ccc(F)cc3)cc2)n1` [4-[4-(4-fluorophenoxy)phenyl]pyrimidine-2-carboxylic acid methylaminomethyleneamide hydrochloride]: the Ki in test [1] worked out at 11.4 µM.
Still for that read-out and setting: the figure for `N#Cc1ccc(C(N)=O)nc1-c1ccc(Oc2ccccc2)cc1` [5-cyano-6-(4-phenoxyphenyl)pyridine-2-carboxamide] is 11.9 µM; for `NC(=O)c1ccc(O)c(-c2ccc(Oc3ccccc3)cc2)n1` [5-hydroxy-6-(4-phenoxyphenyl)pyridine-2-carboxamide] it is 99.3 µM; for `NC(=O)c1ccc(-c2ccc(Oc3ccc(F)cc3)cc2)nc1C(N)=O` [6-[4-(4-fluorophenoxy)phenyl]pyridine-2,3-dicarboxamide] it is 4.54 µM.
In the case of `O=C(NCCN1CCCCC1)c1cccc(-c2ccc(Oc3ccc(F)cc3)cc2)n1` [Compound 3, 6-[4-(4-fluorophenoxy)Phenyl]Pyridine Carboxylic Acid N-piperidinylethylamide], the Ki in test [1] was determined as 0.06 µM.
Regarding `CC(C)(C)c1ccc(-c2cccc(C(N)=O)n2)cc1` [Compound 8a, 6-(4-tert-butylphenyl)pyridine-2-carboxamide], the Ki in test [1] came out at 6.13 µM.
For `CCCCc1ccc(-c2cccc(C(N)=O)n2)cc1` [Compound 8b, 6-(4-n-butylphenyl)pyridine-2-carboxamide], the Ki in test [1] worked out at 10.5 µM.
With `CC(C)c1ccc(-c2cccc(C(N)=O)n2)cc1` [Compound 8c, 6-(4-i-propylphenyl)pyridine-2-carboxamide], the Ki in test [1] worked out at 41.6 µM.
On the same count and under the same terms, then `CSc1ccc(-c2cccc(C(N)=O)n2)cc1` [Compound 8d, 6-(4-thiomethylphenyl)pyridine-2-carboxamide], with 52.7 µM.
Consider `CCOc1ccc(-c2cccc(C(N)=O)n2)cc1` [Compound 8e, 6-(4-ethoxyphenyl)pyridine-2-carboxamide], for which the Ki in test [1] was found to be 58.7 µM.
As to `COc1ccc(-c2cccc(C(N)=O)n2)cc1` [Compound 8f, 6-(4-methoxyphenyl)pyridine-2-carboxamide], the Ki in test [1] came out at 23.9 µM.
For the compound `Cc1cc(N(C)C)cc(-c2ccc(Oc3ccc(F)cc3)cc2)n1` [Compound 14, 2-Methyl-4-dimethylamino-6-[4-(4-fluorophenoxy)phenyl]pyridine], the Ki in test [1] came out at 0.33 µM.
As to `COc1cc(C(N)=O)nc(-c2ccc(Oc3ccc(F)cc3)cc2)c1` [Compound 18, 4-Methoxy-6-[4-(4-fluorophenoxy)phenyl]pyridine-2-carboxamide], the Ki in test [1] came out at 3.43 µM.
Same read-out and setting: the figure for `COc1cc(C(=O)NCCN(C)C)nc(-c2ccc(Oc3ccc(F)cc3)cc2)c1` [Compound 19, 4-Methoxy-6-[4-(4-fluorophenoxy)phenyl]pyridine-2-carboxylic acid dimethylaminoethylamide] is 0.32 µM.
